Measured values as given in patent US7148204B2, “Antisense modulation of bcl-x expression” (Isis Pharmaceuticala, Inc., priority 1998, dated 2006).
In the oligonucleotide strings, read from the 5' end, every base follows the letter of its sugar. An asterisk marks phosphorothioate; unmarked linkages are phosphodiester. Other units and linkages are bracketed, terminal groups are in braces. A string of capitals states the bases alone. e = 2'-O-(2-methoxyethyl) (MOE); [5mC] = 5-methylcytosine; d = 2'-deoxy (DNA)

Key:
Assay type in all cases: cell-based, human
bcl-xs/bcl-xl mRNA ratio = experiment: RNase protection assay, bcl-xs/bcl-xl mRNA ratio in A549 cells; conditions: A549 cells, RPA; for bcl-xs/bcl-xl (%): no oligo 17.56; for bcl-xs/bcl-xl* (change from the control ratio 17.56) / bcl-xs/bcl-xl Fold difference: no oligo = 1; for bcl-xs/bcl-xl Fold difference: 200 nM
From the text: (§1) The ribonuclease (RNase) protection assay is a sensitive and specific method for quantitating expression levels (Zinn, et al., Cell, 1983, 34:865–79). The method is based on the hybridization of a target RNA to an in vitro transcribed ^32P-labeled anti-sense RNA probe from a DNA template. RNase treatment follows, resulting in degradation of single-stranded RNA and excess probe. The probe and target RNA are resolved by denaturing polyacrylamide gel electrophoresis with the “protected” probe visualized using autoradiography or beta imaging equipment. Template sets can be purchased (PharMingen Inc., San Diego Calif.) which contain a series of biologically relevant templates, each of distinct length and each representing a sequence in a distinct mRNA species. Each template set is capable of detecting up to 11 unique gene messages in a single reaction mix in addition to one or more housekeeping genes, L32 and GAPDH, which serve as internal controls. These template sets allow for multiple determinations to be made from a single sample. Multi-probe RPA can be performed on total RNA preparations derived by standard methods, without further purification of poly-A+ RNA.
(§2) Oligonucleotides were evaluated for their respective effects on bcl-xs and bcl-xl mRNA levels along with total bcl-x mRNA levels, using the RIBOQUANT™ RNase protection kit (Pharmingen, San Diego Calif.). All assays were performed according to manufacturer's protocols. Briefly, multi-probe DNA template sets were used to generate antisense RNA transcripts radiolabeled with […]. The template set used for apoptosis genes was the human hAPO-2 set. These radiolabeled probes were hybridized overnight with typically 10 μg of total cellular RNA. The reaction mixture was then digested with single-strand RNases to generate the protected fragments which were electrophoresed through a 5% acrylamide/urea gel. Protected bands were visualized and quantitated using a PhosphorImager (Molecular Dynamics, Sunnyvale Calif.).
(§3) Human bcl-x has two forms, a long form known as bcl-xl and a short form known as bcl-xs. […] The protein of bcl-xl is similar in size and structure to bcl-2, and could inhibit cell death upon growth factor withdrawal. The protein of bcl-xs is 63 amino acids shorter than bcl-xl. It could inhibit the bcl-2 function, thus promoting programmed cell death (apoptosis). Oligonucleotides were evaluated for their respective effects on bcl-xs and bcl-xl mRNA levels along with total bcl-x mRNA levels, using the RIBOQUANT™ RNase protection kit (Pharmingen, San Diego Calif.). All assays were performed according to manufacturer's protocols.
(§4) These oligonucleotides were tested for their inhibitory effects on bcl-xl and bcl-xs mRNA levels in A549 cells, as detected by RPA analysis. Oligonucleotide concentration was 200 nM.

bcl-xl mRNA = experiment: RNase protection assay, bcl-xl mRNA in A549 cells; conditions: RPA
From the text: as §1, §2, §3, §4

bcl-xs mRNA = experiment: RNase protection assay, bcl-xs mRNA in A549 cells; parameters: concentration or dose not given beside the values; conditions: RPA
From the text: as §1, §2, §3

total bcl-x mRNA = experiment: RNase protection assay, total bcl-x mRNA in A549 cells; parameters: % CONTROL total bcl-x: concentration or dose not given beside the values; conditions: RPA
From the text: as §1, §2, §3

[1] = test system: bcl-xs/bcl-xl transcript ratio; experiment: PNA analogs, bcl-x splicing in electroporated HeLa cells; conditions: electroporation
From the text: A peptide-nucleic acid (PNA) oligonucleotide having the ISIS 22783 sequence (SEQ ID NO: 33) was synthesized as described in Example 4 hereinabove. The oligonucleotide (ISIS 32262) was uniformly modified with a PNA backbone throughout. A 5-base mismatch compound (ISIS 32263, SEQ ID NO: 52) was also synthesized as a full PNA. HeLa cells were transfected with these compounds by electroporation with a 200V pulse using a BTX Electro Cell Manipulator 600 (Genetronics, San Diego Calif.) and RNA was isolated 24 hours later.

Substance	bcl-xs/bcl-xl Fold difference (bcl-xs/bcl-xl mRNA ratio) [fold]	% CONTROL bcl-xl (bcl-xl mRNA; 200 nM) [%]	other results
16968 (antisense e[5mC]*eT*e[5mC]*e[5mC]*eG*dA*dT*dG*dT*dC*dC*dC*dC*dT*dC*eA*eA*eA*eG*eT) [compound 16968]	–	–	bcl-xs/bcl-xl (%) (bcl-xs/bcl-xl mRNA ratio): 20.18%; bcl-xs/bcl-xl* (change from the control ratio 17.56) (bcl-xs/bcl-xl mRNA ratio): 1.15; % CONTROL bcl-xl (bcl-xl mRNA): 15%; % CONTROL bcl-xs (bcl-xs mRNA): 20%; % CONTROL total bcl-x (total bcl-x mRNA): 21%
16972 (antisense eT*e[5mC]*eA*e[5mC]*eG*dT*dT*dG*dG*dC*dG*dC*dT*dT*dA*eG*e[5mC]*e[5mC]*eA*eT) [compound 16972]	–	–	bcl-xs/bcl-xl (%) (bcl-xs/bcl-xl mRNA ratio): 11.68%; bcl-xs/bcl-xl* (change from the control ratio 17.56) (bcl-xs/bcl-xl mRNA ratio): 0.67; % CONTROL bcl-xl (bcl-xl mRNA): 91%; % CONTROL bcl-xs (bcl-xs mRNA): 60%; % CONTROL total bcl-x (total bcl-x mRNA): 87%
22782 (antisense e[5mC]*eA*eA*eA*eA*eG*eT*eA*eT*e[5mC]*e[5mC]*e[5mC]*eA*eG*e[5mC]*e[5mC]*eG*e[5mC]*e[5mC]*eG) [compound 22782]	–	–	bcl-xs/bcl-xl (%) (bcl-xs/bcl-xl mRNA ratio): 15.72%; bcl-xs/bcl-xl* (change from the control ratio 17.56) (bcl-xs/bcl-xl mRNA ratio): 0.89; % CONTROL bcl-xl (bcl-xl mRNA): 76%; % CONTROL bcl-xs (bcl-xs mRNA): 64%; % CONTROL total bcl-x (total bcl-x mRNA): 75%
22783 (antisense e[5mC]*eT*eG*eG*eA*eT*e[5mC]*e[5mC]*eA*eA*eG*eG*e[5mC]*eT*e[5mC]*eT*eA*eG*eG*eT) [compound 22783]	18	39	bcl-xs/bcl-xl (%) (bcl-xs/bcl-xl mRNA ratio): 293.10%; bcl-xs/bcl-xl* (change from the control ratio 17.56) (bcl-xs/bcl-xl mRNA ratio): 16.69; % CONTROL bcl-xl (bcl-xl mRNA): 35%; % CONTROL bcl-xs (bcl-xs mRNA): 620%; % CONTROL total bcl-x (total bcl-x mRNA): 120%
26066 (antisense ATCCAAGGCTCTAGGTGGTC; all 2'-MOE, all phosphorothioate, methylation of C not given here) [compound 26066]	37	24	–
26080 (antisense CTGGTTACACGACTCCAGGT; all 2'-MOE, all phosphorothioate, methylation of C not given here) [compound 26080]	2	77	–
105751 (antisense TGGTTCTTACCCAGCCGCCG; all 2'-MOE, all phosphorothioate, methylation of C not given here) [compound 105751]	45	34	–
106249 (antisense CTCTAGGTGGTCATTCAGGT; all 2'-MOE, all phosphorothioate, methylation of C not given here) [compound 106249]	23	47	–
106250 (antisense CTAGGTGGTCATTCAGGTAA; all 2'-MOE, all phosphorothioate, methylation of C not given here) [compound 106250]	21	40	–
106251 (antisense AGGTGGTCATTCAGGTAAGT; all 2'-MOE, all phosphorothioate, methylation of C not given here) [compound 106251]	25	57	–
106252 (antisense GTGGTCATTCAGGTAAGTGG; all 2'-MOE, all phosphorothioate, methylation of C not given here) [compound 106252]	23	72	–
106253 (antisense GGTCATTCAGGTAAGTGGCC; all 2'-MOE, all phosphorothioate, methylation of C not given here) [compound 106253]	19	48	–
106254 (antisense TCATTCAGGTAAGTGGCCAT; all 2'-MOE, all phosphorothioate, methylation of C not given here) [compound 106254]	13	80	–
106255 (antisense ATTCAGGTAAGTGGCCATCC; all 2'-MOE, all phosphorothioate, methylation of C not given here) [compound 106255]	17	64	–
106256 (antisense TCAGGTAAGTGGCCATCCAA; all 2'-MOE, all phosphorothioate, methylation of C not given here) [compound 106256]	15	82	–
106257 (antisense AGGTAAGTGGCCATCCAAGC; all 2'-MOE, all phosphorothioate, methylation of C not given here) [compound 106257]	13	78	–
106258 (antisense GTAAGTGGCCATCCAAGCTG; all 2'-MOE, all phosphorothioate, methylation of C not given here) [compound 106258]	21	66	–
106259 (antisense AAGTGGCCATCCAAGCTGCG; all 2'-MOE, all phosphorothioate, methylation of C not given here) [compound 106259]	15	96	–
106260 (antisense GTGGCCATCCAAGCTGCGAT; all 2'-MOE, all phosphorothioate, methylation of C not given here) [compound 106260]	12	66	–
ISIS 32262: PNA oligonucleotide having the ISIS 22783 sequence (SEQ ID NO: 33), PNA backbone throughout (CTGGATCCAAGGCTCTAGGT; all peptide nucleic acid (PNA))	–	–	Ratio (approx.) of bcl-xs/bcl-xl ([1]; 2 μM): ~2.0; Ratio (approx.) of bcl-xs/bcl-xl ([1]; 5 μM): ~3.5; Ratio (approx.) of bcl-xs/bcl-xl ([1]; 10 μM): ~6.5; Ratio (approx.) of bcl-xs/bcl-xl ([1]; 15 μM): ~7.75; Ratio (approx.) of bcl-xs/bcl-xl ([1]; 25 μM): ~11.5; Ratio (approx.) of bcl-xs/bcl-xl ([1]; RNA 24 hours later, 1 μM): ~1.5
ISIS 32263: 5-base mismatch compound, SEQ ID NO: 52, full PNA (CTGGTTACACGACTCCAGGT; all peptide nucleic acid (PNA)) [reference compound]	–	–	Ratio (approx.) of bcl-xs/bcl-xl ([1]; 2 μM): ~0.75; Ratio (approx.) of bcl-xs/bcl-xl ([1]; 5 μM): ~0.75; Ratio (approx.) of bcl-xs/bcl-xl ([1]; 10 μM): ~1.0; Ratio (approx.) of bcl-xs/bcl-xl ([1]; 15 μM): ~0.75; Ratio (approx.) of bcl-xs/bcl-xl ([1]; 25 μM): ~1.0; Ratio (approx.) of bcl-xs/bcl-xl ([1]; RNA 24 hours later, 1 μM): ~1.5
TGGTTCTTACCCAGCCGCCG (all 2'-MOE, all phosphorothioate, methylation of C not given here) [ISIS 105751]	45	–	–
